In patent US20250333397A1 (REMIX THERAPEUTICS INC., priority 2021, published 2025):
Read-outs that look alike come from different tables or passages of the source.

Assays:
Assay type in all cases: cell-based, human
HTT mRNA = test: RT-qPCR splicing assay, HTT canonical (CJ) and alternative (AJ) junction mRNA; conditions: Homo sapiens; for AC50: read-out: HTT AJ (AC50, increase in AJ mRNA)
How it was run: (§1)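 Junction-specific RT-qPCR read the canonical exon-exon junction and the compound-induced alternative-exon junction, normalized to GAPDH, GUSB or PPIA and then to DMSO (2^(-ΔΔCt)). Input was lysate from A673 or K562 cells exposed for 24 h to compound up to 10 uM.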

MYB mRNA = test: RT-qPCR splicing assay, MYB canonical (CJ) and alternative (AJ) junction mRNA; conditions: Homo sapiens; for AC50: read-out: MYB AJ (AC50, increase in AJ mRNA)
How it was run: as §1

SMN2 mRNA = test: RT-qPCR splicing assay panel, SMN2 canonical junction (CJ) mRNA; conditions: Homo sapiens
How it was run: as §1

Target C mRNA = test: RT-qPCR splicing assay panel, Target C canonical junction (CJ) mRNA; conditions: Homo sapiens
How it was run: as §1

[1] = 24 h, Table 3A, A673 or K562 cells, 24 h treatment
[2] = 24 h, Table 3A, A673 or K562 cells, 24 h treatment, read-out: HTT CJ (IC50, decrease in CJ mRNA)
[3] = canonical junction (CJ) mRNA, RT-qPCR panel, Table 4A, read-out: HTT, decrease in CJ mRNA levels, IC50
[4] = 24 h, Table 3A, A673 or K562 cells, 24 h treatment, read-out: MYB CJ (IC50, decrease in CJ mRNA)
[5] = canonical junction (CJ) mRNA, RT-qPCR panel, Table 4A, read-out: MYB, decrease in CJ mRNA levels, IC50
[6] = canonical junction (CJ) mRNA, RT-qPCR panel, Table 4A, read-out: SMN2, decrease in CJ mRNA levels, IC50
[7] = canonical junction (CJ) mRNA, RT-qPCR panel, Table 4A, read-out: Target C, decrease in CJ mRNA levels, IC50
[8] = 24 h, Table 3B, A673 or K562 cells, 24 h treatment
[9] = 24 h, Table 3B, A673 or K562 cells, 24 h treatment, read-out: HTT CJ (IC50, decrease in CJ mRNA)
[10] = Table 4B, gene panel, read-out: HTT (IC50, decrease in CJ mRNA levels)
[11] = 24 h, Table 3B, A673 or K562 cells, 24 h treatment, read-out: MYB CJ (IC50, decrease in CJ mRNA)
[12] = Table 4B, gene panel, read-out: MYB (IC50, decrease in CJ mRNA levels)
[13] = Table 4B, gene panel, read-out: SMN2 (IC50, decrease in CJ mRNA levels)
[14] = Table 4B, gene panel, read-out: Target C (IC50, decrease in CJ mRNA levels)

Row | Compound | AC50 (HTT mRNA; [1]) [µM] | IC50 (HTT mRNA; [2]) [µM] | IC50 (HTT mRNA; [3]) [µM] | AC50 (MYB mRNA; [1]) [µM] | IC50 (MYB mRNA; [4]) [µM] | IC50 (MYB mRNA; [5]) [µM] | IC50 (SMN2 mRNA; [6]) [µM] | IC50 (Target C mRNA; [7]) [µM] | AC50 (HTT mRNA; [8]) [µM] | IC50 (HTT mRNA; [9]) [µM] | IC50 (HTT mRNA; [10]) [µM] | AC50 (MYB mRNA; [8]) [µM] | IC50 (MYB mRNA; [11]) [µM] | IC50 (MYB mRNA; [12]) [µM] | IC50 (SMN2 mRNA; [13]) [µM] | IC50 (Target C mRNA; [14]) [µM]
1 | Cc1ncc(-c2cc(O)c(-c3ccc(N4CCC(CNC5CCC5)C4)nn3)cc2F)s1 (centres unmarked) [Compound 342, 2-(6-{3-[(cyclobutylamino)methyl]pyrrolidin-1-yl}pyridazin-3-yl)-4-fluoro-5-(2-methyl-1,3-thiazol-5-yl)phenol] | < 0.1 | < 0.1 | < 0.1 | 1 to 10 | > 10 | > 10 | < 0.1 | < 0.1 | – | – | – | – | – | – | – | –
2 | Cc1ncc2cc(-c3ccc(N4CCC(NC(C)(C)C)C4)nn3)c(O)cc2n1 (centres unmarked) [Compound 818] | – | – | – | – | – | – | – | – | > 10 | > 10 | > 10 | > 10 | > 10 | > 10 | > 10 | > 10
3 | COc1cc(-c2ccc(-c3cc(C#N)c(OC4CC(C)(C)NC(C)(C)C4)nn3)c(O)c2)cnn1 [Compound 424] | 0.1 to 1 | 0.1 to 1 | 0.1 to 1 | 1 to 10 | 1 to 10 | 1 to 10 | 0.1 to 1 | 1 to 10 | – | – | – | – | – | – | – | –
4 | Oc1cc(-c2cn[nH]c2)c(F)cc1-c1ccc(N2CC[C@@H](NC3CC3)C2)nn1 [Compound 106, 2-{6-[(3R)-3-(cyclopropylamino)pyrrolidin-1-yl]pyridazin-3-yl}-4-fluoro-5-(1H-pyrazol-4-yl)phenol] | < 0.1 | < 0.1 | < 0.1 | 0.1 to 1 | 0.1 to 1 | 0.1 to 1 | < 0.1 | 0.1 to 1 | – | – | – | – | – | – | – | –
5 | CC(=O)c1cc(-c2ccc(-c3ccc(N4CCC(NC5CCC5)C4)nn3)c(O)c2)cnn1 (centres unmarked) [Compound 445] | > 10 | > 10 | > 10 | > 10 | > 10 | > 10 | > 10 | > 10 | – | – | – | – | – | – | – | –
6 | Cc1ncc(-c2cc(O)c(-c3ccc(N4CC[C@H](NCC5CC5)C4)nn3)cc2F)s1 [Compound 393] | < 0.1 | < 0.1 | < 0.1 | < 0.1 | < 0.1 | < 0.1 | < 0.1 | < 0.1 | – | – | – | – | – | – | – | –
7 | COc1cc(-c2ccc(-c3ccc(N4CC[C@@H](NC5CCC5)C4)nn3)c(O)c2)ncn1 [Compound 364, 2-{6-[(3R)-3-(cyclobutylamino)pyrrolidin-1-yl]pyridazin-3-yl}-5-(6-methoxypyrimidin-4-yl)phenol] | 0.1 to 1 | 0.1 to 1 | 0.1 to 1 | 1 to 10 | 0.1 to 1 | 0.1 to 1 | < 0.1 | 0.1 to 1 | – | – | – | – | – | – | – | –
8 | COc1cc(-c2ccc(-c3ccc(N4CC[C@@H](NC5CC5)C4)nn3)c(O)c2)cnn1 [Compound 216, 2-{6-[(3R)-3-(cyclopropylamino)pyrrolidin-1-yl]pyridazin-3-yl}-5-(6-methoxypyridazin-4-yl)phenol] | 0.1 to 1 | < 0.1 | < 0.1 | 0.1 to 1 | 0.1 to 1 | 0.1 to 1 | < 0.1 | 0.1 to 1 | – | – | – | – | – | – | – | –
9 | Cc1nc2cc(O)c(-c3ccc(N4CC[C@@H](N(C)C(C)(C)C)C4)nn3)cc2o1 [Compound 859] | – | – | – | – | – | – | – | – | 1 to 10 | 1 to 10 | 1 to 10 | 1 to 10 | 1 to 10 | 1 to 10 | < 0.1 | 1 to 10
10 | COc1cc(-c2cc(O)c(-c3ccc(N4CC[C@](C)(NC5CCC5)C4)nn3)cc2F)cnn1 (single isomer, unassigned) [Compound 309, 2-{6-[3-(cyclobutylamino)-3-methylpyrrolidin-1-yl]pyridazin-3-yl}-4-fluoro-5-(6-methoxypyridazin-4-yl)phenol] | 0.1 to 1 | < 0.1 | < 0.1 | 1 to 10 | 1 to 10 | 1 to 10 | < 0.1 | 0.1 to 1 | – | – | – | – | – | – | – | –
11 | COc1cc(-c2cc(O)c(-c3ccc(OC4CC(C)(C)NC(C)(C)C4)nn3)cc2F)cnn1 [Compound 272] | < 0.1 | < 0.1 | < 0.1 | 0.1 to 1 | 0.1 to 1 | 0.1 to 1 | < 0.1 | 0.1 to 1 | – | – | – | – | – | – | – | –
12 | COc1cc(-c2ccc(-c3ccc(N4CCC(NC5CC(F)(F)C5)C4)nn3)c(O)c2)cnn1 (centres unmarked) [Compound 334, 2-(6-(3-((3,3-difluorocyclobutyl)amino)pyrrolidin-1-yl)pyridazin-3-yl)-5-(6-methoxypyridazin-4-yl)phenol] | 0.1 to 1 | < 0.1 | < 0.1 | 1 to 10 | 0.1 to 1 | 0.1 to 1 | 0.1 to 1 | 0.1 to 1 | – | – | – | – | – | – | – | –
13 | Oc1cc(-c2cn[nH]c2)ccc1-c1ccc(N2CC[C@@H](NC3CCC3)C2)nn1 [Compound 114, 2-{6-[(3R)-3-(cyclobutylamino)pyrrolidin-1-yl]pyridazin-3-yl}-5-(1H-pyrazol-4-yl)phenol] | < 0.1 | < 0.1 | < 0.1 | 0.1 to 1 | 0.1 to 1 | 0.1 to 1 | < 0.1 | 0.1 to 1 | – | – | – | – | – | – | – | –
14 | Cc1ncc(-c2cc(O)c(-c3ccc(N4CCC(NC5CCOCC5)C4)nn3)cc2F)s1 (centres unmarked) [Compound 354, 4-fluoro-5-(2-methyl-1,3-thiazol-5-yl)-2-{6-[3-(oxan-4-ylamino)pyrrolidin-1-yl]pyridazin-3-yl}phenol] | < 0.1 | < 0.1 | < 0.1 | < 0.1 | 0.1 to 1 | 0.1 to 1 | < 0.1 | < 0.1 | – | – | – | – | – | – | – | –
15 | CCc1ncc(-c2cc(O)c(-c3ccc(N4CCC(NC5CCC5)C4)nn3)cc2F)s1 (centres unmarked) [Compound 442] | 1 to 10 | > 10 | > 10 | > 10 | > 10 | > 10 | 1 to 10 | > 10 | – | – | – | – | – | – | – | –
16 | COc1cc(-c2ccc(-c3nnc(N4CC[C@H](NC5CCC5)C4)cc3C)c(O)c2)cnn1 [Compound 450, (S)-2-(6-(3-(cyclobutylamino)pyrrolidin-1-yl)-4-methylpyridazin-3-yl)-5-(6-methoxypyridazin-4-yl)phenol] | 1 to 10 | 1 to 10 | 1 to 10 | 1 to 10 | 1 to 10 | 1 to 10 | 1 to 10 | 1 to 10 | – | – | – | – | – | – | – | –
